Reference: patent US11414454B2, “Compositions, methods, and systems for affinity-based protein identification and purification” (Auctus Biologies, Inc., priority 2017, dated 2022)
Read-outs that look alike come from different tables or passages of the source. No end group written: not given here.

Tests used:
[1] = tested on: immobilized RPtag(large) column; assay: Native elution from immobilized RPtag(large) column (3 M NaCl binding, 3 M imidazole elution); set-up: species or system Thermoanaerobacter tengcongensis; details: bound in 100 mM Tris pH 8.0, 3 M NaCl, 0.005% Tween20
Source text: Because of the observed stabilizing character of NaCl and destabilizing character of imidazole on Nd8Cd4 binding, these reagents, among others, were incorporated into a novel buffering system for use with the disclosed proteins, peptides, systems, and methods. In particular, the effect of this novel buffer on binding of RPtag (small) Nd8Cd4 to an immobilized RPtag(large) column was studied. These experiments included eluting both (1) rhodamine labeled peptide and (2) N-terminally RPtag(small) Nd8Cd4 tagged with tagRFP from a column under native conditions. Generally, native conditions is taken to mean at or near biological conditions under which many proteins are folded, e.g. pH 4-9 at moderate temperature (4° C.-30° C.) in the absence of denaturants (e.g. guanidine hydrochloride, urea, SDS). This is in contrast to denaturing conditions, which generally rely on extreme pH (e.g. ≤2) denaturants, or high temperature to unfold proteins.
Briefly, columns, as described above, were first equilibrated with 10 mL 100 mM Tris pH 8.0, 3 M NaCl, 0.005% Tween20. Next, 1 mL of 10 uM rhodamine-tagged Nd8Cd4 or tagRFP containing an N-terminal RPtag (small) Nd8Cd4 tag was applied in the same buffer. The column was then washed with 10 mL of the same buffer. Finally, bound target molecules were eluted with 10 mL of 100 mM Tris pH 8.0, 3 M imidazole, 0.005% Tween20.

RPtag (large) [2] = assay: Fluorescence anisotropy Kd of rhodamine labeled RPtag (small) peptides for RPtag (large); format: binding, Thermoanaerobacter tengcongensis
In short: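 N-terminally rhodamine-labeled RPtag small (50 nM or 1 nM) titrated with RPtag large in 50 mM Tris pH 8.0 with 0.005% Tween 20, 5 min to 1 h at room temperature; BSA served as non-specific binding control. Kd from fitting fluorescence anisotropy to a quadratic binding equation accounting for labeled peptide concentration.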

RPtag (large) [3] = assay: Association/dissociation kinetics of RPtag (small) peptides with RPtag (large) by fluorescence anisotropy; format: binding, Thermoanaerobacter tengcongensis; details: for koff: LS dissociation, unlabeled competitor peptide
In short: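 Rhodamine-labeled RPtag small incubated with unlabeled RPtag large; binding followed by fluorescence anisotropy and converted to complex concentration. For dissociation, 1000 nM RPtag large complex chased with 0.1 mM unlabeled native or Nd2,P5A,E18A peptide; koff from initial rates or single-exponential fits, kon derived from koff and Kd.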

RPtag(large) = assay: pH profile of Kd by fluorescence anisotropy; format: binding, Thermoanaerobacter tengcongensis; details: buffers pH 1.5 to 13
Protocol: The Kds of Nd8,Cd4 for RPtag(large) was measured in the presence of buffers of different pHs ranging from 1.5 to 13.
For these experiments, Kds were measured by fluorescence anisotropy as described above in the following buffers, all at 100 mM with 0.005% Tween 20: glycine pH 1.5, glycine pH 2.0, glycine pH 3.0, acetate pH 4.5, 2-(N-morpholino)ethanesulfonic acid pH 6.0, tris pH 7.0, tris pH 7.5, tris pH 8.0, tris pH 8.5, borate pH 10.0, phosphate pH 11.5, phosphate pH 13.0.

[4] = N-terminal rhodamine tagged peptide, unlabeled RPtag (large), 50 mM Tris pH 8.0, 0.005% Tween 20, mean ± SE

Sequence | elution behaviour with 100 mM Tris pH 8.0, 3 M imidazole [1] | Kd (RPtag (large) [2]) | Kd (RPtag (large) [2]; [4]) | koff (RPtag (large) [3]) | kf (RPtag (large) [3]; S to S* forward rate constant) | kr (RPtag (large) [3]; S* to S reverse rate constant, calculated from Keq and kf) | kon (M^−1 min^−1 ) (×10^7) (RPtag (large) [3]; S*-LS transition, calculated from measured koff and Kd) | pH of relative maximum affinity (RPtag(large)) | Kd (RPtag (large) [2]; N-terminal rhodamine tagged peptide, unlabeled RPtag (large), 50 mM Tris pH 8.0, 0.005% Tween 20, mean ± SE, listed as Nd8Cd4) | binding/unbinding kinetics (RPtag (large) [3]; instrument dead time ~1 min)
KIANFIPAELKLITKANVQ [Nd2, p5a, e18a, KIANFIPAELKLITKANVQ] | diffuse band | ~0.047 nM | 0.047 ± 0.018 nM | 0.000217 ± 1.7e-05 s⁻¹ | 0.051 ± 0.001 min⁻¹ | 0.19 ± 0.02 min⁻¹ | 28 ± 2 ×10^7 M^−1 min^−1 | ~8 pH | – | –
PAELKLITK [Nd8, Cd4, PAELKLITK] | eluted as a tight band | – | 14 ± 1 nM | >0.033 s⁻¹ | – | – | – | ~8 pH | ~14 nM | completed within the dead time
